Publication PMC8012719 (Frontiers in Pharmacology, 2021)
Converted amounts (≈) assume the structure as drawn. “And” between values parts separate entries of the source, which are not always exact repeats. Identical values can stand only once. Counter-ions that a name gives are not always drawn. Like-named read-outs stand apart in the source and are kept apart here.

Tests used:
[1] = tested on: pRABV (pseudovirus enveloped by the RABV glycoprotein G); assay: microbe, parasite or virus in culture; type: cell-based, rabies virus; conditions: for EC50: read-out: pRABV EC50
[2] = tested on: pVSV (pseudovirus expressing a vesicular stomatitis virus envelope glycoprotein); assay: microbe, parasite or virus in culture; type: cell-based; conditions: for EC50: read-out: pVSV EC50
[3] = tested on: RABV CVS strain; assay: microbe, parasite or virus in culture; type: cell-based, rabies virus; conditions: for EC50: read-out: CVS EC50
[4] = in vitro; conditions: human
[5] = tested on: 293T cells
[6] = tested on: Rabies virus CVS strain; conditions: mouse, in vivo
[7] = tested on: RABV; assay: microbe, parasite or virus in culture; type: cell-based; conditions: Lyssavirus rabies, in Felis catus
[8] = in vitro; conditions: cat
[9] = in vitro; conditions: hamster
[10] = tested on: RABV CVS strain; type: cell-based, rabies virus
[11] = physchem
[12] = target: RABV; design: species or system rabies virus; conditions: read-out: binding affinity (KD)
[13] = tested on: RABV; conditions: cited from earlier work
[14] = tested on: rabies infection; conditions: mouse, in vivo; cited from earlier work
[15] = tested on: RABV vaccine strain; conditions: cited from earlier work

Structure (SMILES) | SI pRABV [1] | EC50 ([1]; Pseudovirus, HEK-293T, 48 h) [µM] | EC50pVSV/EC50pRABV [2] | EC50 ([2]; Pseudovirus, HEK-293T) [µM] | SICVS [3] | EC50 ([3]; Lyssavirus rabies, 24 h) [µM] | CC50 [4] [µM] | EC50 [3] [µM] | further results
CCOC(=O)C1=C(COCCN)NC(C)=C(C(=O)OC)C1c1ccccc1Cl (stereo not drawn) [Amlodipine besylate] | 26.8 | 1.4 | 19.4 | 26.4 | 1.0 | 37.4 | 36.3 |  | 
CCOC(=O)C1=C(COCCN)NC(C)=C(C(=O)OC)C1c1ccccc1Cl (stereo not drawn) [Amlodipine maleate] | 17.9 |  | 13.3 |  | 0.9 |  |  | 37.8 | EC50 [1]: 1.9 µM; CC50 [5]: 34.9 µM; EC50 [2]: 25.8 µM
CCN(CC)Cc1cc(Nc2ccnc3cc(Cl)ccc23)ccc1O [Amodiaquine hydrochloride] | 20.3 | 4.2 | 5.8 | 24.3 | 5.7 | 14.8 | 84.9 |  | 
CC(C)N=c1cc2n(-c3ccc(Cl)cc3)c3ccccc3nc-2cc1Nc1ccc(Cl)cc1 [CFZA, Clofazimine aspirin salt] |  |  |  |  |  |  |  | 1.2 | survival rate at 14 dpi [6]: 25%
CC(C)N=c1cc2n(-c3ccc(Cl)cc3)c3ccccc3nc-2cc1Nc1ccc(Cl)cc1 [CFZG, Clofazimine gallic acid salt] |  |  |  |  |  |  |  | 2.07 | percentage of sick mice at five dpi [6]: 40%; survival rate compared with the control [6]: no improvement on the survival rate
CC(C)N=c1cc2n(-c3ccc(Cl)cc3)c3ccccc3nc-2cc1Nc1ccc(Cl)cc1 [CFZH, Clofazimine hydrochloride salt] |  |  |  |  |  |  |  | 1.2 | survival rate compared with the control [6]: no improvement on the survival rate
CC(C)N=c1cc2n(-c3ccc(Cl)cc3)c3ccccc3nc-2cc1Nc1ccc(Cl)cc1 [CFZM, Clofazimine methanesulfonate] |  |  |  |  |  |  |  | 2.5 | survival rate compared with the control [6]: no improvement on the survival rate
CC(C)N=c1cc2n(-c3ccc(Cl)cc3)c3ccccc3nc-2cc1Nc1ccc(Cl)cc1 [CFZS, Clofazimine salicylates] |  |  |  |  |  |  |  | 1.2 | EC50 [7]: 4.71 µM; percentage of sick mice at five dpi [6]: 40%; survival at 14 dpi [6]: 50% and 40%; survival rate at 14 dpi [6]: 30%; redness in the skin ([6]; po): No redness in the skin; CC50 [8]: 670 µM
N.N.[Cl][Pt][Cl] [Cisplatin] | >5.1 |  | >5.1 |  | >3.0 |  |  | 67 | EC50 [1]: 39.1 µM; CC50 [5]: > 200 µM; EC50 [2]: > 200 µM
CC(C)/N=c1\cc2n(-c3ccc(Cl)cc3)c3ccccc3nc-2cc1Nc1ccc(Cl)cc1 [Clofazimine] |  | 1.7 |  | 10.5 |  | 2.28 | > 200 | 2.28 | CC50 [9]: > 2200 µM; EC50 [7]: 4.24 µM; antiviral efficacy (survival) [6]: did not show any antiviral efficacy; percentage of sick mice at five dpi [6]: 50%; survival at 14 dpi [6]: 30%; survival rate at 14 dpi [6]: 10%; CC50 [8]: 144 µM; inhibitory effect on RABV infection [10]: strong inhibitory effect; suppression of fluorescence activity (RABV infection) [10]: no suppression of fluorescence activity; solubility [11]: 0.29 µg/mL (≈ 0.613 µM); concentrations inhibiting RABV [3]: 2 to 33 µM; Kd [12]: 4.32 µM
CC(CN1c2ccccc2S(=O)(=O)c2ccccc21)N(C)C.Cl (stereo not drawn) [Dioxopromethazine hydrochloride] | >5.5 |  | >5.5 |  | >3.0 |  |  | 67 | EC50 [1]: 36.7 µM; CC50 [5]: > 200 µM; EC50 [2]: > 200 µM
CCc1c2c(nc3ccc(OC(=O)N4CCC(N5CCCCC5)CC4)cc13)-c1cc3c(c(=O)n1C2)COC(=O)[C@]3(O)CC.Cl [Irinotecan hydrochloride] | >5.9 |  | >5.9 |  | 1.2 |  |  | 67 | EC50 [1]: 33.6 µM; CC50 [5]: > 200 µM; EC50 [2]: > 200 µM
CNC1(c2ccccc2Cl)CCCCC1=O (stereo not drawn) [Ketamine] |  |  |  |  |  |  |  |  | concentrations inhibiting RABV replication [13]: 1 to 2 mM
CN1CCC(=C2c3ccccc3CC(=O)c3sccc32)CC1 [Ketotifen fumarate] | >18 | 10.8 | 8.1 | 87.8 | >3.0 | 67 | > 200 |  | 
CNCCCC12CCC(c3ccccc31)c1ccccc12 [Maprotiline hydrochloride] |  |  |  |  | >4.5 |  | 52 |  | 
CN1CCC(=C2c3ccccc3CCc3sccc32)CC1 [Pizotifen] | 32.3 | 3.1 | 8.2 | 25.7 | 1.5 | 67 | 100 |  | 
NC(=O)c1nc(F)cnc1O [T-705, 6-fluoro-3-hydroxy-2-pyrazinecarboxamide] |  |  |  |  |  |  |  |  | viral replication in the CNS [14]: suppress viral replication in the CNS; EC50 [15]: 32.4 µM; survival at 14 dpi ([6]; po, 300 mg/kg/day): 40%
CCCCNc1ccc(C(=O)OCCN(C)C)cc1 [Tetracaine hydrochloride] | >3 | 65.8 | >3 | > 200 | >3.0 | 67 | > 200 |  | 
